{"source": "patent US20050154016A1", "about": "“Preventives for hiv infection” (priority 2002, published 2005)", "origin": "cited, not measured here", "tested_on": "R5 HIV-1", "conditions": "reported in non-patent document 18", "data": [{"compound": "Cc1ccc(-c2ccc3c(c2)C=C(C(=O)Nc2ccc(C[N+](C)(C)C4CCOCC4)cc2)CCC3)cc1.[Cl-]", "note": "[TAK-779]", "values": [{"measurement": "inhibitory effect against HIV-1 infection caused by R5 HIV-1", "value": "exhibits an inhibitory effect"}]}]}
